Assays:
[1] = system: Peptostreptococcus anaerobius; experiment: Antimicrobial activity against Peptostreptococcus anaerobius by agar dilution method in presence of 5% laked sheep blood; format: functional
Bacteroides fragilis [2] = experiment: Antimicrobial activity against Bacteroides fragilis by agar dilution method in presence of 5% laked sheep blood; format: functional
[3] = system: Campylobacter ureolyticus; experiment: Antimicrobial activity against Bacteroides ureolyticus NCTC 10941 by agar dilution method in presence of 5% laked sheep blood; format: functional
[4] = Antimicrobial activity against Desulfovibrio piger DSM 749 by agar dilution method in presence of 5% laked sheep blood; format: functional, Desulfovibrio piger ATCC 29098
[5] = system: Parabacteroides distasonis; experiment: Antimicrobial activity against Parabacteroides distasonis by agar dilution method in presence of 5% laked sheep blood; format: functional
[6] = system: Lactobacillus acidophilus; experiment: Antimicrobial activity against Lactobacillus acidophilus JCM 1132 by agar dilution method in presence of 5% laked sheep blood; format: functional
Fusobacterium varium [7] = experiment: Antimicrobial activity against Fusobacterium varium ATCC 8501 by agar dilution method in presence of 5% laked sheep blood; format: functional
[8] = system: Prevotella melaninogenica; experiment: Antimicrobial activity against Prevotella melaninogenica by agar dilution method in presence of 5% laked sheep blood; format: functional
Eggerthella lenta = experiment: Antimicrobial activity against Eggerthella lenta by agar dilution method in presence of 5% laked sheep blood; format: functional
Fusobacterium varium [9] = experiment: Antimicrobial activity against Fusobacterium varium by agar dilution method in presence of 5% laked sheep blood; format: functional
Bacteroides fragilis [10] = experiment: Antimicrobial activity against Bacteroides fragilis ATCC 25285 by agar dilution method in presence of 5% laked sheep blood; format: functional; details: NCTC 9343
Fusobacterium nucleatum [11] = experiment: Antimicrobial activity against Fusobacterium nucleatum ATCC 25586 by agar dilution method in presence of 5% laked sheep blood; format: functional
Clostridium septicum = experiment: Antimicrobial activity against Clostridium septicum ATCC 12464 by agar dilution method in presence of 5% laked sheep blood; format: functional
Prevotella intermedia = experiment: Antimicrobial activity against Prevotella intermedia ATCC 25611 by agar dilution method in presence of 5% laked sheep blood; format: functional
Lacticaseibacillus casei = experiment: Antimicrobial activity against Lactobacillus casei subsp. casei JCM 1134 by agar dilution method in presence of 5% laked sheep blood; format: functional
Bacteroides fragilis [12] = experiment: Antimicrobial activity against carbapenemase-producing Bacteroides fragilis GAI 30144 by agar dilution method in presence of 5% laked sheep blood; format: functional
Clostridium perfringens [13] = experiment: Antimicrobial activity against Clostridium perfringens ATCC 13124 by agar dilution method in presence of 5% laked sheep blood; format: functional
Prevotella sp. = experiment: Antimicrobial activity against Prevotella sp. by agar dilution method in presence of 5% laked sheep blood; format: functional
Bacteroides stercoris = experiment: Antimicrobial activity against Bacteroides stercoris by agar dilution method in presence of 5% laked sheep blood; format: functional
[14] = system: Propionibacterium granulosum; experiment: Antimicrobial activity against Propionibacterium granulosum ATCC 25564 by agar dilution method in presence of 5% laked sheep blood; format: functional; details: Cutibacterium granulosum
Eubacterium limosum = experiment: Antimicrobial activity against Eubacterium limosum by agar dilution method in presence of 5% laked sheep blood; format: functional
Fusobacterium sp. = experiment: Antimicrobial activity against Fusobacterium sp. by agar dilution method in presence of 5% laked sheep blood; format: functional
Prevotella corporis = experiment: Antimicrobial activity against Prevotella corporis GAI 91000 by agar dilution method in presence of 5% laked sheep blood; format: functional
[15] = system: Desulfovibrio desulfuricans; experiment: Antimicrobial activity against Desulfovibrio desulfuricans ATCC 29577 by agar dilution method in presence of 5% laked sheep blood; format: functional
Prevotella denticola = experiment: Antimicrobial activity against Prevotella denticola GAI 5490 by agar dilution method in presence of 5% laked sheep blood; format: functional
[16] = system: Prevotella melaninogenica; experiment: Antimicrobial activity against Prevotella melaninogenica JCM 6325 by agar dilution method in presence of 5% laked sheep blood; format: functional; details: ATCC 25845
Odoribacter splanchnicus = experiment: Antimicrobial activity against Odoribacter splanchnicus by agar dilution method in presence of 5% laked sheep blood; format: functional
Finegoldia magna = experiment: Antimicrobial activity against Finegoldia magna by agar dilution method in presence of 5% laked sheep blood; format: functional
Bacteroides fragilis [17] = experiment: Antimicrobial activity against Bacteroides fragilis GAI 7955 by agar dilution method in presence of 5% laked sheep blood; format: functional
Clostridium perfringens [18] = experiment: Antimicrobial activity against Clostridium perfringens by agar dilution method in presence of 5% laked sheep blood; format: functional
Clostridioides difficile = experiment: Antimicrobial activity against Clostridium difficile by agar dilution method in presence of 5% laked sheep blood; format: functional
Fusobacterium mortiferum = experiment: Antimicrobial activity against Fusobacterium mortiferum by agar dilution method in presence of 5% laked sheep blood; format: functional
Fusobacterium nucleatum [19] = experiment: Antimicrobial activity against Fusobacterium nucleatum by agar dilution method in presence of 5% laked sheep blood; format: functional
[20] = system: Peptoniphilus asaccharolyticus; experiment: Antimicrobial activity against Peptoniphilus asaccharolyticus by agar dilution method in presence of 5% laked sheep blood; format: functional
Bacteroides uniformis = experiment: Antimicrobial activity against Bacteroides uniformis by agar dilution method in presence of 5% laked sheep blood; format: functional
[21] = system: Peptostreptococcus anaerobius; experiment: Antimicrobial activity against Peptostreptococcus anaerobius ATCC 27337 by agar dilution method in presence of 5% laked sheep blood; format: functional
Parvimonas micra = experiment: Antimicrobial activity against Parvimonas micra by agar dilution method in presence of 5% laked sheep blood; format: functional
Phocaeicola vulgatus = experiment: Antimicrobial activity against Bacteroides vulgatus by agar dilution method in presence of 5% laked sheep blood; format: functional
Cutibacterium acnes = experiment: Antimicrobial activity against Propionibacterium acnes ATCC 11828 by agar dilution method in presence of 5% laked sheep blood; format: functional
[22] = Antimicrobial activity against Parabacteroides distasonis ATCC 8503 by agar dilution method in presence of 5% laked sheep blood; format: functional
[23] = system: Bacteroides thetaiotaomicron; experiment: Antimicrobial activity against Bacteroides thetaiotaomicron by agar dilution method in presence of 5% laked sheep blood; format: functional
[24] = system: Bacteroides heparinolyticus; experiment: Antimicrobial activity against Prevotella heparinolytica ATCC 35895 by agar dilution method in presence of 5% laked sheep blood; format: functional
Bacteroides fragilis [25] = experiment: Antimicrobial activity against Bacteroides fragilis NCTC 10581 by agar dilution method in presence of 5% laked sheep blood; format: functional
Hoylesella oralis = experiment: Antimicrobial activity against Prevotella oralis ATCC 33269 by agar dilution method in presence of 5% laked sheep blood; format: functional
Bilophila wadsworthia = experiment: Antimicrobial activity against Bilophila wadsworthia WAL 7959 by agar dilution method in presence of 5% laked sheep blood; format: functional

Cc1ncc([N+](=O)[O-])n1CCO [METRONIDAZOLE]
MIC50 [1]: 0.125 µg/mL | MIC90 [1]: 0.5 µg/mL | MIC50 (Bacteroides fragilis [2]): 0.5 µg/mL | MIC90 (Bacteroides fragilis [2]): 1 µg/mL | MIC [3]: 2 µg/mL | MIC [4]: 0.25 µg/mL | MIC50 [5]: 0.5 µg/mL | MIC90 [5]: 1 µg/mL | MIC [6]: > 128 µg/mL | MIC (Fusobacterium varium [7]): 0.25 µg/mL | MIC50 [8]: 1 µg/mL | MIC90 [8]: 2 µg/mL | MIC50 (Eggerthella lenta): 0.5 µg/mL | MIC90 (Eggerthella lenta): 0.5 µg/mL | MIC50 (Fusobacterium varium [9]): ≤ 0.015 µg/mL | MIC90 (Fusobacterium varium [9]): 0.5 µg/mL | MIC (Bacteroides fragilis [10]): 0.5 µg/mL | MIC (Fusobacterium nucleatum [11]): ≤ 0.015 µg/mL | MIC (Clostridium septicum): 1 µg/mL | MIC (Prevotella intermedia): 1 µg/mL | MIC (Lacticaseibacillus casei): > 128 µg/mL | MIC (Bacteroides fragilis [12]): 1 µg/mL | MIC (Clostridium perfringens [13]): 1 µg/mL | MIC50 (Prevotella sp.): 1 µg/mL | MIC90 (Prevotella sp.): 2 µg/mL | MIC50 (Bacteroides stercoris): 0.5 µg/mL | MIC90 (Bacteroides stercoris): 1 µg/mL | MIC [14]: > 128 µg/mL | MIC50 (Eubacterium limosum): 0.5 µg/mL | MIC90 (Eubacterium limosum): 0.5 µg/mL | MIC50 (Fusobacterium sp.): ≤ 0.015 µg/mL | MIC90 (Fusobacterium sp.): 0.5 µg/mL | MIC (Prevotella corporis): 0.125 µg/mL | MIC [15]: 0.06 µg/mL | MIC (Prevotella denticola): 0.25 µg/mL | MIC [16]: 1 µg/mL | MIC50 (Odoribacter splanchnicus): 0.5 µg/mL | MIC90 (Odoribacter splanchnicus): 1 µg/mL | MIC50 (Finegoldia magna): 0.5 µg/mL | MIC90 (Finegoldia magna): 1 µg/mL | MIC (Bacteroides fragilis [17]): 0.25 µg/mL | MIC50 (Clostridium perfringens [18]): 1 µg/mL | MIC90 (Clostridium perfringens [18]): 2 µg/mL | MIC50 (Clostridioides difficile): 1 µg/mL | MIC90 (Clostridioides difficile): 1 µg/mL | MIC50 (Fusobacterium mortiferum): ≤ 0.015 µg/mL | MIC90 (Fusobacterium mortiferum): 0.5 µg/mL | MIC50 (Fusobacterium nucleatum [19]): ≤ 0.015 µg/mL | MIC90 (Fusobacterium nucleatum [19]): 0.5 µg/mL | MIC50 [20]: 1 µg/mL | MIC90 [20]: 2 µg/mL | MIC50 (Bacteroides uniformis): 0.5 µg/mL | MIC90 (Bacteroides uniformis): 1 µg/mL | MIC [21]: 0.125 µg/mL | MIC50 (Parvimonas micra): 0.5 µg/mL | MIC90 (Parvimonas micra): 1 µg/mL | MIC50 (Phocaeicola vulgatus): 0.5 µg/mL | MIC90 (Phocaeicola vulgatus): 1 µg/mL | MIC (Cutibacterium acnes): > 128 µg/mL | MIC [22]: 1 µg/mL | MIC50 [23]: 0.5 µg/mL | MIC90 [23]: 2 µg/mL | MIC [24]: 0.06 µg/mL | MIC (Bacteroides fragilis [25]): 1 µg/mL | MIC (Hoylesella oralis): 0.125 µg/mL | MIC (Bilophila wadsworthia): 0.06 µg/mL

C[C@@H](O)[C@H]1C(=O)N2C(C(=O)O)=C(S[C@@H]3CN[C@H](CNS(N)(=O)=O)C3)[C@H](C)[C@H]12 [DORIPENEM]
MIC50 [1]: 0.25 µg/mL | MIC90 [1]: 2 µg/mL | MIC50 (Bacteroides fragilis [2]): 0.25 µg/mL | MIC90 (Bacteroides fragilis [2]): 0.5 µg/mL | MIC [3]: 0.06 µg/mL | MIC [4]: 0.06 µg/mL | MIC50 [5]: 0.5 µg/mL | MIC90 [5]: 4 µg/mL | MIC [6]: 0.125 µg/mL | MIC (Fusobacterium varium [7]): 0.5 µg/mL | MIC50 [8]: 0.06 µg/mL | MIC90 [8]: 0.125 µg/mL | MIC50 (Eggerthella lenta): 0.25 µg/mL | MIC90 (Eggerthella lenta): 0.25 µg/mL | MIC50 (Fusobacterium varium [9]): 0.03 µg/mL | MIC90 (Fusobacterium varium [9]): 0.25 µg/mL | MIC (Bacteroides fragilis [10]): 0.5 µg/mL | MIC (Fusobacterium nucleatum [11]): 4 µg/mL | MIC (Clostridium septicum): 0.06 µg/mL | MIC (Prevotella intermedia): 0.06 µg/mL | MIC (Lacticaseibacillus casei): 1 µg/mL | MIC (Bacteroides fragilis [12]): > 128 µg/mL | MIC (Clostridium perfringens [13]): 0.03 µg/mL | MIC50 (Prevotella sp.): 0.06 µg/mL | MIC90 (Prevotella sp.): 0.125 µg/mL | MIC50 (Bacteroides stercoris): 0.5 µg/mL | MIC90 (Bacteroides stercoris): 4 µg/mL | MIC [14]: 0.5 µg/mL | MIC50 (Eubacterium limosum): 0.25 µg/mL | MIC90 (Eubacterium limosum): 0.25 µg/mL | MIC50 (Fusobacterium sp.): 0.03 µg/mL | MIC90 (Fusobacterium sp.): 0.25 µg/mL | MIC (Prevotella corporis): 0.125 µg/mL | MIC [15]: 0.125 µg/mL | MIC (Prevotella denticola): 0.06 µg/mL | MIC [16]: 0.125 µg/mL | MIC50 (Odoribacter splanchnicus): 0.5 µg/mL | MIC90 (Odoribacter splanchnicus): 4 µg/mL | MIC50 (Finegoldia magna): 0.125 µg/mL | MIC90 (Finegoldia magna): 0.25 µg/mL | MIC (Bacteroides fragilis [17]): 2 µg/mL | MIC50 (Clostridium perfringens [18]): 0.03 µg/mL | MIC90 (Clostridium perfringens [18]): 0.06 µg/mL | MIC50 (Clostridioides difficile): 2 µg/mL | MIC90 (Clostridioides difficile): 4 µg/mL | MIC50 (Fusobacterium mortiferum): 0.03 µg/mL | MIC90 (Fusobacterium mortiferum): 0.25 µg/mL | MIC50 (Fusobacterium nucleatum [19]): 0.03 µg/mL | MIC90 (Fusobacterium nucleatum [19]): 0.25 µg/mL | MIC50 [20]: ≤ 0.015 µg/mL | MIC90 [20]: 0.125 µg/mL | MIC50 (Bacteroides uniformis): 0.5 µg/mL | MIC90 (Bacteroides uniformis): 4 µg/mL | MIC [21]: 0.5 µg/mL | MIC50 (Parvimonas micra): 0.06 µg/mL | MIC90 (Parvimonas micra): 0.125 µg/mL | MIC50 (Phocaeicola vulgatus): 0.5 µg/mL | MIC90 (Phocaeicola vulgatus): 4 µg/mL | MIC (Cutibacterium acnes): 1 µg/mL | MIC [22]: 0.5 µg/mL | MIC50 [23]: 0.5 µg/mL | MIC90 [23]: 1 µg/mL | MIC [24]: 0.06 µg/mL | MIC (Bacteroides fragilis [25]): 0.5 µg/mL | MIC (Hoylesella oralis): 0.06 µg/mL | MIC (Bilophila wadsworthia): 0.06 µg/mL

Reference: ChEMBL document CHEMBL1275576, “In vitro activity of tomopenem (CS-023/RO4908463) against anaerobic bacteria” (Antimicrob Agents Chemother, 2009)
